Measured values taken from ChEMBL document CHEMBL5120839, “Design, synthesis and antibacterial activity of novel pleuromutilin derivatives with thieno[2,3-d]pyrimidine substitution” (Eur J Med Chem, 2022).
≈ marks a conversion by molar mass, not a printed value.

How the values were obtained:
Assay type in all cases: functional
[1] = test system: Staphylococcus aureus; test: Antibacterial activity against Staphylococcus aureus assessed as diameter of the inhibition circle at 1 mg/ml incubated for 48 hrs
[2] = test system: Staphylococcus aureus; test: Antibacterial activity against Staphylococcus aureus assessed as inhibition of bacterial growth incubated for 24 hrs by microbroth two-fold dilution method
[3] = test system: Streptococcus agalactiae; test: Antibacterial activity against Streptococcus agalactiae assessed as inhibition of bacterial growth incubated for 24 hrs by microbroth two-fold dilution method
[4] = test system: Escherichia coli; test: Antibacterial activity against Escherichia coli assessed as inhibition of bacterial growth incubated for 24 hrs by microbroth two-fold dilution method

Structure (SMILES) | MIC [2] [µg/mL] | MIC [3] [µg/mL] | MIC [4] [µg/mL] | inhibition zone diameter [1] [mm] | Activity [1] [mM]
C=C[C@]1(C)C[C@@H](OC(=O)CSc2nc(N3CCN(CC)CC3)c3ccccc3n2)[C@]2(C)[C@H](C)CC[C@]3(CCC(=O)[C@H]32)[C@@H](C)[C@@H]1O | 0.488 (≈ 0.769 µM) | 0.244 (≈ 0.384 µM) | 3.91 (≈ 6.15 µM) | 22.1 | 
C=C[C@]1(C)C[C@@H](OC(=O)CSc2nc(N3CCCNCC3)c3ccsc3n2)[C@]2(C)[C@H](C)CC[C@]3(CCC(=O)[C@H]32)[C@@H](C)[C@@H]1O | 0.122 (≈ 0.195 µM) | 0.061 (≈ 0.0973 µM) | 0.976 (≈ 1.56 µM) | 26.2 | 
C=C[C@]1(C)C[C@@H](OC(=O)CSc2nc(N/N=C/c3ccccc3Br)c3ccsc3n2)[C@]2(C)[C@H](C)CC[C@]3(CCC(=O)[C@H]32)[C@@H](C)[C@@H]1O | 15.6 (≈ 21.5 µM) | 0.977 (≈ 1.35 µM) | > 15.6 | 22.8 | 
C=C[C@]1(C)C[C@@H](OC(=O)CSc2nc(N(C)C)c3ccsc3n2)[C@]2(C)[C@H](C)CC[C@]3(CCC(=O)[C@H]32)[C@@H](C)[C@@H]1O | 3.91 (≈ 6.83 µM) | 1.95 (≈ 3.42 µM) | 15.6 (≈ 27.3 µM) | 21.8 | 
C=C[C@]1(C)C[C@@H](OC(=O)CSc2nc(N3CCC(N(C)C)CC3)c3ccsc3n2)[C@]2(C)[C@H](C)CC[C@]3(CCC(=O)[C@H]32)[C@@H](C)[C@@H]1O | 0.244 (≈ 0.373 µM) | 0.122 (≈ 0.186 µM) | 3.91 (≈ 5.96 µM) | 27.2 | 
C=C[C@]1(C)C[C@@H](OC(=O)CSc2ncc(C)c(N3CCN(CC)CC3)n2)[C@]2(C)[C@H](C)CC[C@]3(CCC(=O)[C@H]32)[C@@H](C)[C@@H]1O | 0.244 (≈ 0.408 µM) | 0.244 (≈ 0.408 µM) | 3.91 (≈ 6.52 µM) | 26.6 | 
C=C[C@]1(C)C[C@@H](OC(=O)CSc2nc(NCCO)c3c(C)csc3n2)[C@]2(C)[C@H](C)CC[C@]3(CCC(=O)[C@H]32)[C@@H](C)[C@@H]1O | 0.122 (≈ 0.203 µM) | 0.488 (≈ 0.811 µM) | 0.977 (≈ 1.62 µM) | 25.9 | 
C=C[C@]1(C)C[C@@H](OC(=O)CSc2nc(N3CCN(CC)CC3)c3c(C)csc3n2)[C@]2(C)[C@H](C)CC[C@]3(CCC(=O)[C@H]32)[C@@H](C)[C@@H]1O | 0.244 (≈ 0.373 µM) | 0.0076 (≈ 0.0116 µM) | 0.977 (≈ 1.49 µM) | 31.2 | 
C=C[C@]1(C)C[C@@H](OC(=O)CSc2nc(N/N=C/c3ccc(O)c(Br)c3)c3ccsc3n2)[C@]2(C)[C@H](C)CC[C@]3(CCC(=O)[C@H]32)[C@@H](C)[C@@H]1O | 3.91 (≈ 5.27 µM) | 1.95 (≈ 2.63 µM) | > 15.6 | 21 | 
C=C[C@]1(C)C[C@@H](OC(=O)CSc2nccc(N3CCN(CC)CC3)n2)[C@]2(C)[C@H](C)CC[C@]3(CCC(=O)[C@H]32)[C@@H](C)[C@@H]1O | 0.122 (≈ 0.209 µM) | 0.122 (≈ 0.209 µM) | 1.95 (≈ 3.34 µM) | 28.6 | 
C=C[C@]1(C)C[C@@H](OC(=O)CSc2nc(N/N=C/c3ccccc3[N+](=O)[O-])c3ccsc3n2)[C@]2(C)[C@H](C)CC[C@]3(CCC(=O)[C@H]32)[C@@H](C)[C@@H]1O | 7.81 (≈ 11.3 µM) | 0.0153 (≈ 0.0221 µM) | 7.81 (≈ 11.3 µM) | 21.5 | 
C=C[C@]1(C)C[C@@H](OC(=O)CSc2nc(N/N=C/c3ccc(F)cc3)c3ccsc3n2)[C@]2(C)[C@H](C)CC[C@]3(CCC(=O)[C@H]32)[C@@H](C)[C@@H]1O | 7.81 (≈ 11.7 µM) | 0.244 (≈ 0.367 µM) | 15.6 (≈ 23.5 µM) | 20.2 | 
C=C[C@]1(C)C[C@@H](OC(=O)CSc2nc(N/N=C/c3ccc(OC)cc3O)c3ccsc3n2)[C@]2(C)[C@H](C)CC[C@]3(CCC(=O)[C@H]32)[C@@H](C)[C@@H]1O | 7.81 (≈ 11.3 µM) | 0.244 (≈ 0.352 µM) | > 15.6 | 23 | 
C=C[C@]1(C)C[C@@H](OC(=O)CSc2ncc(C)c(NCCO)n2)[C@]2(C)[C@H](C)CC[C@]3(CCC(=O)[C@H]32)[C@@H](C)[C@@H]1O | 0.244 (≈ 0.447 µM) | 0.122 (≈ 0.224 µM) | 3.91 (≈ 7.16 µM) | 27.6 | 
C=C[C@]1(C)C[C@@H](OC(=O)CSc2nc(N/N=C/c3ccc(C(F)(F)F)cc3)c3ccsc3n2)[C@]2(C)[C@H](C)CC[C@]3(CCC(=O)[C@H]32)[C@@H](C)[C@@H]1O | 7.81 (≈ 10.9 µM) | 0.244 (≈ 0.341 µM) | > 15.6 | 22.2 | 
C=C[C@]1(C)C[C@@H](OC(=O)CSc2nc(N3CCOCC3)c3ccsc3n2)[C@]2(C)[C@H](C)CC[C@]3(CCC(=O)[C@H]32)[C@@H](C)[C@@H]1O | 0.122 (≈ 0.199 µM) | 0.061 (≈ 0.0994 µM) | 1.95 (≈ 3.18 µM) | 21.6 | 
C=C[C@]1(C)C[C@@H](OC(=O)CSc2nc(N/N=C/c3ccccc3OC)c3ccsc3n2)[C@]2(C)[C@H](C)CC[C@]3(CCC(=O)[C@H]32)[C@@H](C)[C@@H]1O | 0.977 (≈ 1.44 µM) | 0.244 (≈ 0.361 µM) | > 15.6 | 21.1 | 

The remaining compounds from weak to strong by MIC [2], led by results:

MIC [2] [µg/mL] | MIC [3] [µg/mL] | MIC [4] [µg/mL] | Structure (SMILES) | inhibition zone diameter [1] [mm] | Activity [1] [mM]
15.6 (≈ 25 µM) | 7.81 (≈ 12.5 µM) | > 15.6 | C=C[C@]1(C)C[C@@H](OC(=O)CSc2nc(N3CCC(C)CC3)c3ccsc3n2)[C@]2(C)[C@H](C)CC[C@]3(CCC(=O)[C@H]32)[C@@H](C)[C@@H]1O | 10.9 | 
7.81 (≈ 12.4 µM) | 1.95 (≈ 3.1 µM) | > 15.6 | C=C[C@]1(C)C[C@@H](OC(=O)CSc2nc(N3CCSCC3)c3ccsc3n2)[C@]2(C)[C@H](C)CC[C@]3(CCC(=O)[C@H]32)[C@@H](C)[C@@H]1O | 14 | 
7.81 (≈ 11.5 µM) | 0.0305 (≈ 0.0451 µM) | > 15.6 | C=C[C@]1(C)C[C@@H](OC(=O)CSc2nc(N/N=C/c3ccc(OC)cc3)c3ccsc3n2)[C@]2(C)[C@H](C)CC[C@]3(CCC(=O)[C@H]32)[C@@H](C)[C@@H]1O | 18.8 | 
7.81 (≈ 11.4 µM) | 0.061 (≈ 0.0893 µM) | > 15.6 | C=C[C@]1(C)C[C@@H](OC(=O)CSc2nc(N/N=C/c3ccc(F)cc3F)c3ccsc3n2)[C@]2(C)[C@H](C)CC[C@]3(CCC(=O)[C@H]32)[C@@H](C)[C@@H]1O | 22.8 | 
3.91 (≈ 6.53 µM) | 0.061 (≈ 0.102 µM) | > 15.6 | C=C[C@]1(C)C[C@@H](OC(=O)CSc2nc(N3CCCC3)c3ccsc3n2)[C@]2(C)[C@H](C)CC[C@]3(CCC(=O)[C@H]32)[C@@H](C)[C@@H]1O | 17.8 | 
0.977 (≈ 1.5 µM) | 0.488 (≈ 0.748 µM) | 7.81 (≈ 12 µM) | C=C[C@]1(C)C[C@@H](OC(=O)CSc2nc(N/N=C/c3cccs3)c3ccsc3n2)[C@]2(C)[C@H](C)CC[C@]3(CCC(=O)[C@H]32)[C@@H](C)[C@@H]1O | 22.8 | 
0.488 (≈ 0.748 µM) | 0.244 (≈ 0.374 µM) | 1.95 (≈ 2.99 µM) | C=C[C@]1(C)C[C@@H](OC(=O)CSc2nc(N3CCN(CC)CC3)cc(C(F)(F)F)n2)[C@]2(C)[C@H](C)CC[C@]3(CCC(=O)[C@H]32)[C@@H](C)[C@@H]1O | 21 | 
0.488 (≈ 0.814 µM) | 0.488 (≈ 0.814 µM) | 0.488 (≈ 0.814 µM) | C=C[C@]1(C)C[C@@H](OC(=O)CSc2nc(NCCO)cc(C(F)(F)F)n2)[C@]2(C)[C@H](C)CC[C@]3(CCC(=O)[C@H]32)[C@@H](C)[C@@H]1O | 29 | 
0.244 (≈ 0.447 µM) | 0.244 (≈ 0.447 µM) | 7.81 (≈ 14.3 µM) | C=C[C@]1(C)C[C@@H](OC(=O)CSc2nc(C)cc(NCCO)n2)[C@]2(C)[C@H](C)CC[C@]3(CCC(=O)[C@H]32)[C@@H](C)[C@@H]1O | 22.8 | 
0.244 (≈ 0.408 µM) | 0.122 (≈ 0.204 µM) | 3.91 (≈ 6.52 µM) | C=C[C@]1(C)C[C@@H](OC(=O)CSc2nc(C)cc(N3CCN(CC)CC3)n2)[C@]2(C)[C@H](C)CC[C@]3(CCC(=O)[C@H]32)[C@@H](C)[C@@H]1O | 23.9 | 
0.122 (≈ 0.23 µM) | 0.488 (≈ 0.918 µM) | 3.91 (≈ 7.35 µM) | C=C[C@]1(C)C[C@@H](OC(=O)CSc2nccc(NCCO)n2)[C@]2(C)[C@H](C)CC[C@]3(CCC(=O)[C@H]32)[C@@H](C)[C@@H]1O |  | 27.3
0.122 (≈ 0.195 µM) | 0.244 (≈ 0.389 µM) | 7.81 (≈ 12.5 µM) | C=C[C@]1(C)C[C@@H](OC(=O)CSc2nc(N3CCN(C)CC3)c3ccsc3n2)[C@]2(C)[C@H](C)CC[C@]3(CCC(=O)[C@H]32)[C@@H](C)[C@@H]1O | 26.1 | 
